Data set [1] can be described thus: Stability test of crystal samples placed open in the air (illumination, heating, humidity), HPLC analysis. The class given is physicochemical. The following applies: for HPLC analysis result, 60° C.: heating 60° C.; for HPLC analysis result, 60° C. / HPLC analysis result, RH90% / HPLC analysis result, Light: open in air; for HPLC analysis result, RH90%: humidity RH 90%; for HPLC analysis result, Light: illumination 4500 Lux. From the text: The stability investigation of different Ivabradine hydrochloride crystal form: three different solvents crystallization of samples were obtained in turn according to the method of example 4 except that Ivabradine sulfate is substituted with Ivabradine hydrochloride and ethanol is substituted with acetonitrile, ethyl acetate, acetone.
Moreover, α-form crystal samples can be obtained using toluene, N-methyl pyrrole as crystallization solvents according to the method disclosed in CN1583341A.
The four samples obtained above and the form I crystal of Ivabradine sulfate prepared in example 1 were placed opening in the air to test the stability in various conditions including illumination (4500 Lux), heating (60° C.), humidity (RH 90%).

The nature of data set [2]: pH of the Ivabradine sulfate aqueous solution. The data set is classed as physicochemical. The following applies: C=1%. The procedure:
(§1) 4.3 g of […] was dissolved in 100 ml of acetone, then 30 ml of acetone containing 1 g of sulfuric acid was added. The obtained mixture was stirred and white crystals were precipitated from the reaction solution. The resulting precipitate was collected by filtration, washed with acetone and then dried at 60° C. in vacuum for 3 hours to obtain 4.8 g of Ivabradine sulfate. Melting point was determined by capillary crystalline approach at 156˜158° C. Water content is 0.8%. The pH of the Ivabradine sulfate aqueous is about 1.8 (C=1%). Yield: 90.5%.
as §1, with “containing 0.4” for “containing 1”, “obtain 1.2” for “obtain 4.8”, “Yield: 55.5%. It is form I crystal of Ivabradine sulfate judged by X-ray and DSC patterns.” for “Yield: 90.5%.”

Counter-ions that a name gives are not always drawn.

For the compound `COc1cc2c(cc1OC)CC(=O)N(CCCN(C)C[C@H]1Cc3cc(OC)c(OC)cc31)CC2` [Ivabradine sulfate 20080618, Ivabradine hydrochloride], in data set [1] (Time 0 day, hydrochloride), the “HPLC analysis result, 60° C.” value was 99.54%; the “HPLC analysis result, RH90%” value was 99.54%; the “HPLC analysis result, Light” value came to 99.54%. For the same compound, in data set [1] (Time 5 days, hydrochloride), the “HPLC analysis result, 60° C.” value was found to be 99.50%; the “HPLC analysis result, RH90%” value turned out to be 99.23%; the “HPLC analysis result, Light” value was found to be 99.47%. Also, in data set [1] (Time 10 days, hydrochloride), the “HPLC analysis result, 60° C.” value was found to be 99.46%; the “HPLC analysis result, RH90%” value is reported as 99.00%; the “HPLC analysis result, Light” value came out at 99.42%.

As for `COc1cc2c(cc1OC)CC(=O)N(CCCN(C)C[C@H]1Cc3cc(OC)c(OC)cc31)CC2` [Ivabradine hydrochloride 20080911, Ivabradine hydrochloride], in data set [1] (Time 0 day, hydrochloride), the “HPLC analysis result, 60° C.” value is 99.55%; the “HPLC analysis result, RH90%” value is 99.55%; the “HPLC analysis result, Light” value amounted to 99.55%. For the same compound, in data set [1] (Time 5 days, hydrochloride), the “HPLC analysis result, 60° C.” value worked out at 99.31%; the “HPLC analysis result, RH90%” value was 99.10%; the “HPLC analysis result, Light” value was 98.88%. In data set [1] (Time 10 days, hydrochloride), the “HPLC analysis result, 60° C.” value worked out at 99.12%; the “HPLC analysis result, RH90%” value was found to be 98.42%; the “HPLC analysis result, Light” value amounted to 98.07%.

`COc1cc2c(cc1OC)CC(=O)N(CCCN(C)C[C@H]1Cc3cc(OC)c(OC)cc31)CC2` [Ivabradine hydrochloride 20080912, Ivabradine hydrochloride]: the “HPLC analysis result, 60° C.” value is listed as 99.57% in data set [1] (Time 0 day, hydrochloride); 99.36% in data set [1] (Time 5 days, hydrochloride); 99.05% in data set [1] (Time 10 days, hydrochloride). Further, the “HPLC analysis result, RH90%” value in data set [1] (Time 0 day, hydrochloride) is 99.57%; in data set [1] (Time 5 days, hydrochloride) it was 99.20%; in data set [1] (Time 10 days, hydrochloride), 98.91%. In addition, the “HPLC analysis result, Light” value in data set [1] (Time 0 day, hydrochloride) is 99.57%; in data set [1] (Time 5 days, hydrochloride) it was 99.29%; in data set [1] (Time 10 days, hydrochloride), 98.87%.

On to `COc1cc2c(cc1OC)CC(=O)N(CCCN(C)C[C@H]1Cc3cc(OC)c(OC)cc31)CC2` [Ivabradine hydrochloride 20080908, Ivabradine hydrochloride], for which the “HPLC analysis result, 60° C.” value in data set [1] (Time 0 day, hydrochloride) turned out to be 99.56%; in data set [1] (Time 5 days, hydrochloride), 98.74%; in data set [1] (Time 10 days, hydrochloride), 99.04%. Moreover, the “HPLC analysis result, RH90%” value in data set [1] (Time 0 day, hydrochloride) is on record as 99.56%; in data set [1] (Time 5 days, hydrochloride) it was 99.03%; in data set [1] (Time 10 days, hydrochloride) it was 98.61%. The “HPLC analysis result, Light” value stood at 99.56% in data set [1] (Time 0 day, hydrochloride); 97.45% in data set [1] (Time 5 days, hydrochloride); 94.91% in data set [1] (Time 10 days, hydrochloride).

For `COc1cc2c(cc1OC)CC(=O)N(CCCN(C)C[C@H]1Cc3cc(OC)c(OC)cc31)CC2` [Ivabradine sulfate 20080922, Ivabradine sulfate], the “HPLC analysis result, 60° C.” value in data set [1] (Time 0 day) stood at 99.46%; in data set [1] (Time 5 days), 99.42%; in data set [1] (Time 10 days), 99.40%. The “HPLC analysis result, RH90%” value is reported as 99.46% in data set [1] (Time 0 day), 99.28% in data set [1] (Time 5 days) and 99.19% in data set [1] (Time 10 days). The “HPLC analysis result, Light” value in data set [1] (Time 0 day) came out at 99.46%; in data set [1] (Time 5 days), 99.42%; in data set [1] (Time 10 days), 99.39%. Also, the “stability compared with the α-form crystal of Ivabradine hydrochloride” value in data set [1] (under high moisture conditions) was “more stable”; in data set [1] (under the light and heat condition), “similar”. In addition, the “stability compared with the polymorphism or mixed crystal of Ivabradine hydrochloride from acetonitrile, ethyl acetate, acetone” value in data set [1] (under various conditions) is given as “improved significantly”. The “pH of the Ivabradine sulfate aqueous” value in data set [2] was “about 1.8”.

Source of the values: US8541405B2, “Methods for the preparation of Ivabradine sulfate and form I crystal thereof” (Jiangsu Hengrui Medicine Co., Ltd., priority 2009, dated 2013).
